Measured values: patent publication US20260007681A1, “INDOLE DERIVATIVES AS ESTROGEN RECEPTOR DEGRADERS” (REGENTS OF THE UNIVERSITY OF MICHIGAN, priority 2022, published 2026)
Where two headings read alike, the source gives them in different places.

Tests used:
ER in T47D cells = ER in T47D cells (Homo sapiens (Human), UniProt P03372); assay: In-cell western (ICW) ER degradation assay in T47D cells (Compounds A1-A70); type: cell-based; conditions: T47D cells, 16 hrs treatment; for DC50: ER degradation, 0.02 to 300 nM; for Dmax: maximal ER degradation, read-out: T47D ICW Dmax (%)
Description: (§1) ERa degradative activity of compounds can be assessed in MCF-7 and T47D Cells. MCF-7 and T47D cell are seeded and are subsequently treated with the compounds at certain concentrations (e.g., 0.02 to 300 nM). DMSO can be used as vehicle control. Cells are fixed and are blocked with Intercept (PBS) Blocking Buffer (e.g., Li—COR, Odyssey Blocking Buffer), and are stained with ER (e.g., 1:500, Cell signaling) primary antibody for overnight at cold room. Secondary Antibody (e.g., IRDye 800CW Goat anti-Rabbit IgG) and CellTag 700 Stain are added in Intercept (PBS) Blocking Buffer. Finally, cell plate is placed in incubator to dry. Image and signal are captured on Odyssey® DLx Imaging System.
(§2) Day 3: After 16 hrs of compounds treatment, cells were fixed by 4% PFA and permeabilized with elution buffer (0.1% Triton X-100 in 1% PBS Solution). Subsequently, cells were blocked with Intercept (PBS) Blocking Buffer (Li—COR, Odyssey Blocking Buffer), and were stained with ER (1:500, Cell signaling) primary antibody for overnight at cold room.
(§3) Day 4: Remove the buffer, add IRDye 800CW Goat anti-Rabbit IgG Secondary Antibody (1:2000) and CellTag 700 Stain (1:500) in Intercept (PBS) Blocking Buffer. Finally, cell plate is placed in incubator to dry. Image and signal were captured on Odyssey® DLx Imaging System.

ER in MCF-7 cells = ER in MCF-7 cells (Homo sapiens (Human), UniProt P03372); assay: In-cell western (ICW) ER degradation assay in MCF-7 cells (Compounds A1-A70); type: cell-based; conditions: MCF-7 cells, 16 hrs treatment; for DC50: ER degradation, 0.02 to 300 nM, read-out: MCF7 ICW DC50; for Dmax: MCF7, maximal ER degradation, read-out: MCF7 ICW Dmax (%)
Description: as §1, §2, §3

CRBN/DDB1 = CRBN/DDB1 (Homo sapiens (Human), UniProt Q96SW2); type: binding; conditions: His tagged CRBN+DDB-DLS7+CXU4, Cy5-labeled Thalidomide probe, one hour incubation; read-out: CRBN HTRF IC50
Description: The binding potency was determined using H-TRF assay technology (Perkin Elmer). Compounds were serially diluted in DMSO and 0.2 μL volume was transferred to white 384-well plate.

ER in T47D cells, sequence (P03372 whole entry): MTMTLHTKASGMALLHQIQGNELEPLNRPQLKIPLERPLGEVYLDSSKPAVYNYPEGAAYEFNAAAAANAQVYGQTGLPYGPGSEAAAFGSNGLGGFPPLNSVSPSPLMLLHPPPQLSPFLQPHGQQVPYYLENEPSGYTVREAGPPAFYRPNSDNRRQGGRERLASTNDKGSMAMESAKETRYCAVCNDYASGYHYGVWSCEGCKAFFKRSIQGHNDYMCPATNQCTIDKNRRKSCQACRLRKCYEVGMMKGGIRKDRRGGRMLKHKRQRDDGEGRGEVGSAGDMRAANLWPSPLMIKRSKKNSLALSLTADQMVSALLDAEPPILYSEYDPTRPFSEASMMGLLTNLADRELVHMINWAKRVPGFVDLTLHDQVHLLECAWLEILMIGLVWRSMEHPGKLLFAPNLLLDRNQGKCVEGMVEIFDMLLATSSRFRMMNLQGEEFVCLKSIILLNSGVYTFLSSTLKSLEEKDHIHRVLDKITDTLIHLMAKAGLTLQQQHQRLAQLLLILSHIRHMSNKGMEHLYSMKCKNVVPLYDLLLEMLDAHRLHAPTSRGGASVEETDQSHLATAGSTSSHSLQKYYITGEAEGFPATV
ER in MCF-7 cells, sequence (P03372 whole entry): as above
CRBN/DDB1, sequence (Q96SW2 whole entry): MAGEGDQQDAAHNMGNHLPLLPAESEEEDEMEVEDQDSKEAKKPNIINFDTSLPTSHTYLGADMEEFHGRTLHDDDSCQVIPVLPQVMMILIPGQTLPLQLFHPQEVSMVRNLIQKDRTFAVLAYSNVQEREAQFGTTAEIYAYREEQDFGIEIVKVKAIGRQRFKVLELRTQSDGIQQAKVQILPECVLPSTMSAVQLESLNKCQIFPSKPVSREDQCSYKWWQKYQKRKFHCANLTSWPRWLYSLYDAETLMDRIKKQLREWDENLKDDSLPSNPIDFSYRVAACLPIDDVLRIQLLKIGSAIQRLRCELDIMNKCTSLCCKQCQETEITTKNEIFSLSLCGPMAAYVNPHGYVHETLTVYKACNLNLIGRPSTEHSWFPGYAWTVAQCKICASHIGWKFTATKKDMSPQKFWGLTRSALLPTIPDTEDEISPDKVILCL
CRBN/DDB1, sequence (Q16531 whole entry partner): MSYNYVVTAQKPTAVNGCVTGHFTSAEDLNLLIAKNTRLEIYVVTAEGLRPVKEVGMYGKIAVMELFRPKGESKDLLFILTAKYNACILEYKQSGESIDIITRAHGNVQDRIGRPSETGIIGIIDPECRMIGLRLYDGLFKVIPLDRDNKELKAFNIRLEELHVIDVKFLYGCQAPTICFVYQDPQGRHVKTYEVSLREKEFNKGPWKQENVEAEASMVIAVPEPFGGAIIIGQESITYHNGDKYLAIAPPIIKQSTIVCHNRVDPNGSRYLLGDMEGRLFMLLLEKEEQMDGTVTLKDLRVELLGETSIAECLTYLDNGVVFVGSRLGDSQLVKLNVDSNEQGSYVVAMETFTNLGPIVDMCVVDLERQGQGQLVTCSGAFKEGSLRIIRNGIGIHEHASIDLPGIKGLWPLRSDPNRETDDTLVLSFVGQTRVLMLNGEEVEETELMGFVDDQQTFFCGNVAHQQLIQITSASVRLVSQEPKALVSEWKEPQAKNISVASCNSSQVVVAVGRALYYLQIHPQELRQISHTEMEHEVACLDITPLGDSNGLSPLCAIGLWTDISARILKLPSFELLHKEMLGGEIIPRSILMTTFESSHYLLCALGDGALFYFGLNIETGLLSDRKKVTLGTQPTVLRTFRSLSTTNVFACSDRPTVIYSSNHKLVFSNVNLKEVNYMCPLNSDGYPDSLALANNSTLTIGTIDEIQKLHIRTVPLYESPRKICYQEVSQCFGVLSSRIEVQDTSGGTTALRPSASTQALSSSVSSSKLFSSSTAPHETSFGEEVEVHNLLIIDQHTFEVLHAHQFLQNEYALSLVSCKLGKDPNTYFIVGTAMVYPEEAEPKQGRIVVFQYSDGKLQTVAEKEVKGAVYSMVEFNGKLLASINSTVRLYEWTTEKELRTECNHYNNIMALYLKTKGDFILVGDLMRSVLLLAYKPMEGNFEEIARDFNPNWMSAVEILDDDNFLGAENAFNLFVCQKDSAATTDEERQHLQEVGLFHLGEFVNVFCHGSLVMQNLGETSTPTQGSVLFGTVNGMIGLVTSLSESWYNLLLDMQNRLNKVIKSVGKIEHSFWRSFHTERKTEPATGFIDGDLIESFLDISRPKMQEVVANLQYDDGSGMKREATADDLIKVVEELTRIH

SMILES	DC50 (ER in T47D cells) [nM]	Dmax (ER in T47D cells; T47D) [%]	DC50 (ER in MCF-7 cells) [nM]	Dmax (ER in MCF-7 cells) [%]	IC50 (CRBN/DDB1) [nM]	Dmax (ER in T47D cells) [%]
C[C@@H]1Cc2c([nH]c3ccccc23)[C@@H](c2cnc(N3CCO[C@H](CN4CCN5c6cc7c(cc6OC[C@@H]5C4)C(=O)N(C4CCC(=O)NC4=O)C7)C3)nc2)N1CC(C)(C)F (stereo partly drawn) [Compound A22, 3-((S)-3-(((R)-4-(5-((1R,3R)-2-(2-fluoro-2-methylpropyl)-3-methyl-2,3,4,9-tetrahydro-1H-pyrido[3,4-b]indol-1-yl)pyrimidin-2-yl)morpholin-2-yl)methyl)-8-oxo-1,2,3,4,4a,5,8,10-octahydro-9H-pyrazino[1′,2′:4,5][1,4]oxazino[2,3-f]isoindol-9-yl)piperidine-2,6-dione]	< 1	25 to 50	1 to 10	25 to 50	50 to 500	
C[C@@H]1Cc2c([nH]c3ccccc23)[C@@H](c2ccc(N3CCC(CN4CCN5c6ccc7c(c6OC[C@@H]5C4)CN([C@H]4CCC(=O)NC4=O)C7=O)CC3)nc2)N1CC(F)F [Compound A23, (S)-3-((S)-7-((1-(5-((1R,3R)-2-(2,2-difluoroethyl)-3-methyl-2,3,4,9-tetrahydro-1H-pyrido[3,4-b]indol-1-yl)pyridin-2-yl)piperidin-4-yl)methyl)-1-oxo-1,3,5,5a,6,7,8,9-octahydro-2H-pyrazino[1′,2′:4,5][1,4]oxazino[2,3-e]isoindol-2-yl)piperidine-2,6-dione]	1 to 10	50 to 75	1 to 10	25 to 50	50 to 500	
C[C@@H]1Cc2c([nH]c3ccccc23)[C@@H](c2cnc([C@H]3CC[C@H](C(=O)N4CCC(N5Cc6cc7c(cc6C5)C(=O)N(C5CCC(=O)NC5=O)C7)CC4)CC3)nc2)N1CC(F)F (stereo partly drawn) [Compound A25, 3-(6-(1-((1R,4r)-4-(5-((1R,3R)-2-(2,2-difluoroethyl)-3-methyl-2,3,4,9-tetrahydro-1H-pyrido[3,4-b]indol-1-yl)pyrimidin-2-yl)cyclohexane-1-carbonyl)piperidin-4-yl)-1-oxo-3,5,6,7-tetrahydropyrrolo[3,4-f]isoindol-2(1H)-yl)piperidine-2,6-dione]	< 1	25 to 50	10 to 100	< 25	< 50	
COc1cc(N2CCC3(CCN(C(=O)CN4Cc5cc6c(cc5C4)C(=O)N(C4CCC(=O)NC4=O)C6=O)CC3)CC2)ccc1[C@@H]1c2[nH]c3ccccc3c2C[C@@H](C)N1CC(F)F (stereo partly drawn) [Compound A27, 6-(2-(9-(4-((1R,3R)-2-(2,2-difluoroethyl)-3-methyl-2,3,4,9-tetrahydro-1H-pyrido[3,4-b]indol-1-yl)-3-methoxyphenyl)-3,9-diazaspiro[5.5]undecan-3-yl)-2-oxoethyl)-2-(2,6-dioxopiperidin-3-yl)-6,7-dihydropyrrolo[3,4-f]isoindole-1,3(2H,5H)-dione]	< 1	> 75	< 1	50 to 75	500 to 5000	
COc1cc(N2CCC(CN3CCN4c5cc(F)c(C(=O)N[C@H]6CCC(=O)NC6=O)cc5OC[C@@H]4C3)CC2)ccc1[C@@H]1c2[nH]c3ccccc3c2C[C@@H](C)N1CC(F)F [Compound A30, (S)-3-((1-(4-((1R,3R)-2-(2,2-difluoroethyl)-3-methyl-2,3,4,9-tetrahydro-1H-pyrido[3,4-b]indol-1-yl)-3-methoxyphenyl)piperidin-4-yl)methyl)-N-((S)-2,6-dioxopiperidin-3-yl)-9-fluoro-1,2,3,4,4a,5-hexahydrobenzo[b]pyrazino[1,2-d][1,4]oxazine-8-carboxamide]	1 to 10	50 to 75	1 to 10	25 to 50	500 to 5000	
COc1cc(N2CCC(CN3CCN(c4ccc(NC5CCC(=O)NC5=O)cc4F)CC3)CC2)ccc1[C@@H]1c2[nH]c3ccccc3c2C[C@@H](C)N1CC(F)F (stereo partly drawn) [Compound A31, 3-((4-(4-((1-(4-((1R,3R)-2-(2,2-difluoroethyl)-3-methyl-2,3,4,9-tetrahydro-1H-pyrido[3,4-b]indol-1-yl)-3-methoxyphenyl)piperidin-4-yl)methyl)piperazin-1-yl)-3-fluorophenyl)amino)piperidine-2,6-dione]	1 to 10	25 to 50	< 1	25 to 50	< 50	
C[C@@H]1Cc2c([nH]c3ccccc23)[C@@H](c2cnc(N3CCC4(CC3)CC(CN3CCC(c5ccc6c(c5)n(C)c(=O)n6C5CCC(=O)NC5=O)CC3)C4)nc2)N1CC(F)F (stereo partly drawn) [Compound A32, 3-(5-(1-((7-(5-((1R,3R)-2-(2,2-difluoroethyl)-3-methyl-2,3,4,9-tetrahydro-1H-pyrido[3,4-b]indol-1-yl)pyrimidin-2-yl)-7-azaspiro[3.5]nonan-2-yl)methyl)piperidin-4-yl)-3-methyl-2-oxo-2,3-dihydro-1H-benzo[d]imidazol-1-yl)piperidine-2,6-dione]	< 1	50 to 75	< 1	25 to 50	50 to 500	
COc1cc(N2CCC(CN3CCC4(CC3)COc3cc5c(cc34)CN(C3CCC(=O)NC3=O)C5=O)CC2)ccc1[C@@H]1c2[nH]c3ccccc3c2C[C@@H](C)N1CC(F)F (stereo partly drawn) [Compound A33, 3-(1′-((1-(4-((1R,3R)-2-(2,2-difluoroethyl)-3-methyl-2,3,4,9-tetrahydro-1H-pyrido[3,4-b]indol-1-yl)-3-methoxyphenyl)piperidin-4-yl)methyl)-7-oxo-5,7-dihydro-2H,6H-spiro[furo[2,3-f]isoindole-3,4′-piperidin]-6-yl) piperidine-2,6-dione]	< 1		1 to 10	< 25	50 to 500	50 to 75
COc1cc(N2CCC(CN3CCC(c4ccc(N[C@H]5CCC(=O)NC5=O)cc4F)CC3)CC2)ccc1[C@@H]1c2[nH]c3ccccc3c2C[C@@H](C)N1CC(F)F [Compound A34, (S)-3-((4-(1-((1-(4-((1R,3R)-2-(2,2-difluoroethyl)-3-methyl-2,3,4,9-tetrahydro-1H-pyrido[3,4-b]indol-1-yl)-3-methoxyphenyl)piperidin-4-yl)methyl)piperidin-4-yl)-3-fluorophenyl)amino)piperidine-2,6-dione]	< 1	25 to 50	> 100	< 25	< 50	
COc1cc(N2CCC(CN3CCC(c4ccc5c(c4)n(C)c(=O)n5C4CCC(=O)NC4=O)CC3)CC2)ccc1[C@@H]1c2[nH]c3ccccc3c2C[C@@H](C)N1CC(F)F (stereo partly drawn) [Compound A35, 3-(5-(1-((1-(4-((1R,3R)-2-(2,2-difluoroethyl)-3-methyl-2,3,4,9-tetrahydro-1H-pyrido[3,4-b]indol-1-yl)-3-methoxyphenyl)piperidin-4-yl)methyl)piperidin-4-yl)-3-methyl-2-oxo-2,3-dihydro-1H-benzo[d]imidazol-1-yl)piperidine-2,6-dione]	< 1	50 to 75	10 to 100	25 to 50	50 to 500	
COc1cc(N2CCC(CN3CCN4c5ccc6c(c5OC[C@H]4C3)CN([C@H]3CCC(=O)NC3=O)C6=O)CC2)ccc1[C@H]1c2[nH]c3ccccc3c2C[C@@H](C)N1CC(F)F [Compound A39, (S)-3-((R)-7-((1-(4-((1S,3R)-2-(2,2-difluoroethyl)-3-methyl-2,3,4,9-tetrahydro-1H-pyrido[3,4-b]indol-1-yl)-3-methoxyphenyl)piperidin-4-yl)methyl)-1-oxo-1,3,5,5a,6,7,8,9-octahydro-2H-pyrazino[1′,2′:4,5][1,4]oxazino[2,3-e]isoindol-2-yl)piperidine-2,6-dione]	< 1	50 to 75	< 1	50 to 75	50 to 500	
COc1cc(N2CCC(CN3CCN(c4ccc(C5CCC(=O)NC5=O)cc4)CC3)CC2)ccc1[C@@H]1c2[nH]c3ccccc3c2C[C@@H](C)N1CC(F)F (stereo partly drawn) [Compound A46, 3-(4-(4-((1-(4-((1R,3R)-2-(2,2-difluoroethyl)-3-methyl-2,3,4,9-tetrahydro-1H-pyrido[3,4-b]indol-1-yl)-3-methoxyphenyl)piperidin-4-yl)methyl)piperazin-1-yl)phenyl)piperidine-2,6-dione]	< 1	25 to 50			50 to 500	
